A word on the Hill coefficient: it is the slope factor of the fitted curve. Usually IC50 stands for the concentration that gives 50% inhibition.

Several values for one entry are separate records, joined by “and”; a condition that tells them apart may be missing. Identical values can stand only once.

The target of the test is T1, Otop1 (Mus musculus, UniProt Q80VM9, G396A).
T1 construct: expressed in transfected cells; host or cells: HEK-293 cells (CRL-1573, ATCC), transient co-transfection with GFP, cDNA in pcDNA3
T1 sequence (Q80VM9 1-600 G396A): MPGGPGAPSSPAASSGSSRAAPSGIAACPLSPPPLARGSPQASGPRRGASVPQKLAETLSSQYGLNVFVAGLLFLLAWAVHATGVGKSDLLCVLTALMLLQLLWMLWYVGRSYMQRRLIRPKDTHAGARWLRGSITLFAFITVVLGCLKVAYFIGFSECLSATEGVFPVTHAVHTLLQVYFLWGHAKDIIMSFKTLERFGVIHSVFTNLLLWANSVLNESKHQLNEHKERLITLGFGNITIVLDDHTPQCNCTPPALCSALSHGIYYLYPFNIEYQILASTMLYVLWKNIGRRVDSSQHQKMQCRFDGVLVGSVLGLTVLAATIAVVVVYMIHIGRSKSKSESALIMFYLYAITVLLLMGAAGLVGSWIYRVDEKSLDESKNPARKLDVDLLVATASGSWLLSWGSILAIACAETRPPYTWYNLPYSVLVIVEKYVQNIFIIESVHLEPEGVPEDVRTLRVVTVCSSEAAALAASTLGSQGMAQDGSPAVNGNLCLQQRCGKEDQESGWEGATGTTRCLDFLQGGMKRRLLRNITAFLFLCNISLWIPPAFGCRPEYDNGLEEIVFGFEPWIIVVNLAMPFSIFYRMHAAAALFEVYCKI
The test can be described thus: Zn2+ inhibition of Otop1 currents, whole-cell patch clamp in transfected HEK-293 cells. The format is cell-based. As to conditions: Otop1-transfected HEK-293 cells, currents evoked by pH 5.5, Hill equation fit. An excerpt:
The transition metal Zn^2+ is a potent inhibitor of Hv1, binding to two external histidine residues that regulate gating^7,31,32. […] To gain insights into structural elements involved in ion permeation by Otop1, we measured its sensitivity to inhibition by Zn^2+.
Otop and GFP (5:1) were co-transfected into HEK-293 cells (CRL-1573, ATCC) using TransIT-LT1 Transfection Reagent (Mirus Bio Corporation, Madison, Wis.). Patch clamp recording and imaging experiments on GFP-positive cells were performed at room temperature ˜24-48 h after transfection.
Whole-cell patch clamp recording was performed as previously described^49. In brief, recordings were made with an Axopatch 200A or Axopatch 200B amplifier, digitized with a Digidata 1322a 16-bit data acquisition system, acquired with pClamp 8.2, and analyzed with Clampfit 8.2 (Molecular Devices, Palo Alto, Calif.). Records were sampled at 5 kHz and filtered at 1 kHz. Patch pipettes with resistance of 2-4 MΩ were fabricated from borosilicate glass, and only recordings in which a gigaohm seal was achieved were used in the analysis. For most experiments, after the whole cell configuration was achieved, the membrane potential was held at −80 mV, or ramped from −80 mV to +80 mV (1V/s) once per second. […]
(In general: In patch-clamp work, channel activity is measured electrically.)

`[Cl-].[Cl-].[Zn+2]` [Zn^2+, ZnCl2]: the Hill coefficient was 0.89 and 0.89±0.06; the IC50 came out at 190 µM.

The record behind these values is patent US11467168B2, “Methods of identifying a moldulator of otopetrin-mediated proton translocation activity” (UNIVERSITY OF SOUTHERN CALIFORNIA, priority 2017, dated 2022).
